These results are taken from patent publication US20040110826A1, “Receptor Antagonists” (priority 2001, published 2004).

The subject of series [1] is MPTP-treated common marmoset. Nature of the series: Anti-dyskinesia activity: LID score in MPTP-treated common marmoset model with repeated L-DOPA. The format is in vivo. As to conditions: L-DOPA-induced dyskinesia (LID) score, test compound plus L-DOPA vs vehicle plus L-DOPA, 4 animals per group. From the text: Parkinson's disease is characterized by degeneration and neuronal cell death of the nigrostriatal dopaminergic neurons. In primates, treatment with a dopamine neurotoxin, 1-methyl-4-phenyl-1,2,3,6-tetrahydropyridine (hereinafter referred to as “MPTP”), causes selective degeneration and loss of the nigrostriatal dopaminergic neurons, showing akinesia, rigidity, etc. These MPTP-treated primates are known as a model of Parkinson's disease [Proceedings of the National Academy of Science USA, Vol. 80, p. 4546 (1983)]. Common marmoset belongs to Anthropoidea and is known to show Parkinsonian symptoms caused by MPTP treatment as in the case of other Anthropoidea [Neuroscience Letter, Vol. 57, p. 37 (1985)). On the other hand, current treatment for Parkinson's disease is based primarily on dopamine replacement therapy by administration of L-DOPA. The administration of L-DOPA is effective treatment of symptoms associated with Parkinson's disease (anti-Parkinson activity). However, the long-term therapy using L-DOPA is known to cause loss of medicinal efficacy (wearing off and on-off), dyskinesia, psychosis, etc. Particularly, L-DOPA-induced dyskinesia (hereinafter referred to as “LID”) has become an issue due to the frequency of its development and the pain of the patients. […] 731 (1995)].
This test was carried out using 4 animals per group of female and male common marmosets of 5 to 7 years of age (300 to 375 g in body weight, CLEA Japan). MPTP (RBI) was dissolved in physiological saline for injection (Otsuka Pharmaceutical Co., Ltd.) and subcutaneously administered to each common marmoset once a day for 5 days in a dose of 2.0 mg/kg. More than six weeks after the administration, animals showing chronic symptoms of Parkinson's disease were used to prepare a model of dyskinesia. […] The locomotor activity was measured at 10-minute intervals for 12 hours by a computer-controlled automatic measuring apparatus. […]

The next series addresses T1, α2C-adrenoceptor (Homo sapiens, UniProt P18825).
T1 sequence (P18825 1-462): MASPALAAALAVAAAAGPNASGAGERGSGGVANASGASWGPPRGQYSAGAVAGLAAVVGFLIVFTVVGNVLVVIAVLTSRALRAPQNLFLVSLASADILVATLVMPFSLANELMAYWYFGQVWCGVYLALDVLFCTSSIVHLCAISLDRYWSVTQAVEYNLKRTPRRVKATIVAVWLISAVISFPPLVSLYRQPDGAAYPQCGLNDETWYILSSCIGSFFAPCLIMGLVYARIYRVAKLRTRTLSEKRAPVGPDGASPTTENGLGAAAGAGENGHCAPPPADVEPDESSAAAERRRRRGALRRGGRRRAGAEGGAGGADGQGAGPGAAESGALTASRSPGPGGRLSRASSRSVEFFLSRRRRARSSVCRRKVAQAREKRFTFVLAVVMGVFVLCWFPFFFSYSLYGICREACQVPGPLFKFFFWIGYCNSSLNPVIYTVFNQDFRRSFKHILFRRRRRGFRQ
As to conditions: described in J. Pharmacol. Exp. Ther. 271, 1558 (1994) and Proc. Natl. Acad. Sci. USA 85, 6301 (1988); cited from earlier work.

As a reminder, the melting point is the temperature, or range, at which the solid turns liquid.

On to `Nc1ncc(CN2CCN(Cc3ccncc3)CC2)c2nc(-c3ccco3)nn12` [Compound 35, 5-Amino-2-(2-furyl)-8-[4-(4-pyridylmethyl)piperazin-1-ylmethyl][1,2,4]triazolo[1,5-c]pyrimidine], for which the melting point was in the range of 168.7 to 169.2 °C. As to `CC1c2ccccc2CN1CC1=NCCN1` (stereo not shown) [BRL44408], in series [1], the anti-dyskinesia activity entry is recorded as “did not show anti-dyskinesia activity”. The “affinity to α2C-adrenoceptor” value at α2C-adrenoceptor was “low affinity”. For the molecule `c1ccc2c(c1)OCC(C1=NCCN1)O2` (stereo not shown) [idazoxan], in series [1], the anti-dyskinesia activity result is “showed anti-dyskinesia activity”. The “affinity to α2C-adrenoceptor” value at α2C-adrenoceptor is “having an affinity to α2C-adrenoceptor”.

`COc1ccccc1N1CCN(CCN2C(=O)c3ccccc3C(C)(C)C2=O)CC1` [ARC239]: the anti-dyskinesia activity entry in series [1] is on record as “showed anti-dyskinesia activity”. At α2C-adrenoceptor, the “affinity to α2C-adrenoceptor” value is on record as “having an affinity to α2C-adrenoceptor”.
